Laboratory results as given in ChEMBL document CHEMBL6182838, “Structure-activity relationship expansion and microsomal stability assessment of the 2-morpholinobenzoic acid scaffold as antiproliferative phosphatidylcholine-specific phospholipase C inhibitors” (RSC Med Chem, 2025).

What was measured:
Bacillus cereus = experiment: Inhibition of Bacillus cereus phosphatidylcholine specific phospholipase C (PC-PLC BC) assessed as enzyme activity by measuring formation of resorufin fluorophore 10 uM by Amplex-Red based fluorescence assay relative to control; design: scale not given: the % may be the effect or the level left
MDA-MB-231 = experiment: Antiproliferative activity against human MDA-MB-231 cells assessed as cell proliferation at 10 uM measured after 3 days incubation followed by incubated 5 hrs with [3H]-thymidine by 3H-thymidine incorporation assay relative to control; format: functional; settings: MDA-MB-231, 72 h, time 3 day, read-out: Activity
HCT-116 = experiment: Antiproliferative activity against human HCT-116 cells assessed as cell proliferation at 10 uM measured after 3 days incubation followed by incubated 5 hrs with [3H]-thymidine by 3H-thymidine incorporation assay relative to control; format: functional; settings: HCT-116, 72 h, time 3 day, read-out: Activity

SMILES | Activity (Bacillus cereus) | growth at 10 µM (MDA-MB-231) | growth at 10 µM (HCT-116)
O=C(O)c1cc(NCc2ccccc2F)ccc1C1CCOCC1 | 43.4% | 113% | 104%
O=C(O)c1cc(NCc2cccc(Cl)c2)ccc1C1CCOCC1 | 109% | 114% | 103%
COc1cccc(CNc2ccc(C3CCOCC3)c(C(=O)NO)c2)c1 | 80.6% | 89.2% | 94.4%
COc1cccc(CNc2ccc(C(=O)NO)c(N3CCOCC3)c2)c1 | 51.4% | 65.7% | 77.4%
O=C(NO)c1cc(NCc2ccccc2Br)ccc1N1CCOCC1 | – | 7.4% | –
O=C(O)c1ccc(NCc2ccc(Br)cc2)cc1N1CCOCC1 | 99.1% | 99.7% | 101%
COC(=O)c1ccc(NCc2ccccc2)cc1N1CCOCC1 | 102% | 95.2% | 85.4%
O=C(O)c1cc(NCc2cccc(Br)c2)ccc1C1CCOCC1 | 113% | 107% | 104%
COC(=O)c1ccc(NCc2ccccc2Cl)cc1N1CCOCC1 | 75.9% | 70.4% | 43.2%
COC(=O)c1ccc(NCc2cccc(Cl)c2)cc1N1CCOCC1 | 55.8% | 68.9% | 44.3%
O=C(O)c1ccc(NCc2ccc(Cl)cc2)cc1N1CCOCC1 | 32.4% | 88.4% | 88.2%
COc1ccccc1CNc1ccc(C2CCOCC2)c(C(=O)O)c1 | 108% | 100% | 106%
COc1ccc(CNc2ccc(C(=O)O)c(N3CCOCC3)c2)cc1 | 106% | 110% | 105%
COc1ccccc1CNc1ccc(C(=O)O)c(N2CCOCC2)c1 | 105% | 92.6% | 102%
O=C(O)c1ccc(NCc2cccc(Cl)c2)cc1N1CCOCC1 | 33.1% | 87.2% | 88.6%

Continued, in another order:

Activity (Bacillus cereus) | SMILES | growth at 10 µM (MDA-MB-231) | growth at 10 µM (HCT-116)
112% | COC(=O)c1cc(NCc2ccccc2Br)ccc1C1CCOCC1 | 16.4% | 20.3%
105% | O=C(O)c1cc(NCc2ccc(Br)cc2)ccc1C1CCOCC1 | 102% | 104%
77.2% | COC(=O)c1cc(NCc2ccccc2)ccc1C1CCOCC1 | 29.3% | 19.8%
104% | COC(=O)c1ccc(NCc2ccccc2OC)cc1N1CCOCC1 | 73.6% | 55.5%
80.3% | COC(=O)c1ccc(NCc2ccc(F)cc2)cc1N1CCOCC1 | 81.9% | 65%
54.1% | O=C(NO)c1ccc(NCc2ccccc2Cl)cc1N1CCOCC1 | 41.8% | 68.4%
92.5% | O=C(NO)c1cc(NCc2ccc(Cl)cc2)ccc1C1CCOCC1 | 72.2% | 69.9%
101% | COC(=O)c1cc(NCc2ccccc2Cl)ccc1C1CCOCC1 | 25.9% | 25.9%
82.8% | O=C(NO)c1cc(NCc2ccccc2Cl)ccc1C1CCOCC1 | 86.8% | 86.7%
36.3% | COC(=O)c1ccc(NCc2ccccc2Br)cc1N1CCOCC1 | 51.3% | 29.5%
49.1% | O=C(NO)c1ccc(NCc2cccc(F)c2)cc1N1CCOCC1 | 76.2% | 84.3%
